ChEMBL document CHEMBL1151409, “Flavonoids of Desmanthus illinoensis” (1983)
Activity calls are given as the source filed them. The rule behind the calls is not given here.

What was measured:
Heliothis virescens = assay: Growth inhibition of tobacco budworm larvae assessed as percent of diet; type: functional
[1] = system: Lysinibacillus sphaericus; assay: Antibacterial activity against Bacillus sphaericus by test disc paper method; type: functional, organism-based
Bacillus subtilis = assay: Antibacterial activity against Bacillus subtilis at 100 ug by test disc paper method; type: functional; conditions: read-out: IZ
[2] = system: Stenotrophomonas maltophilia; assay: Antibacterial activity against Pseudomonas maltophilia at 100 ug by test disc paper method; type: functional; conditions: read-out: IZ
Bacillus thuringiensis = assay: Antibacterial activity against Bacillus thuringiensis at 100 ug by test disc paper method; type: functional; conditions: read-out: IZ
Solanum lycopersicum = assay: Growth regulatory activity on tomato root; type: functional, organism-based

Structure (SMILES) | ED50 (Heliothis virescens) | Activity [1] | zone of inhibition at 100 µg/disc (Bacillus subtilis) | zone of inhibition at 100 µg/disc [2] | zone of inhibition at 100 µg/disc (Bacillus thuringiensis) | Activity (Solanum lycopersicum)
C[C@H]1O[C@@H](Oc2c(-c3cc(O)c(O)c(O)c3)oc3cc(O)cc(O)c3c2=O)[C@@H](O)[C@@H](O)[C@@H]1O [MYRICITRIN] | 0.11% |  |  |  |  | 
O=C(O)c1cc(O)c(O)c(O)c1 [GALLIC ACID] | 18.5% | Active | 10 mm |  |  | 
O=c1c(O)c(-c2ccc(O)c(O)c2)oc2cc(O)cc(O)c12 [QUERCETIN] | 0.05% |  |  | 10 mm |  | 
C[C@H]1O[C@@H](Oc2c(-c3cc(O)c(O)c(O)c3)oc3cc(O)cc(O)c3c2=O)[C@@H](OC(=O)c2cc(O)c(O)c(O)c2)[C@@H](O)[C@@H]1O | 0.09% | Active | 10 mm | 10 mm | 10 mm | 
C[C@H]1O[C@@H](Oc2c(-c3cc(O)c(O)c(O)c3)oc3cc(O)cc(O)c3c2=O)[C@@H](O)[C@@H](O)[C@@H]1OC(=O)c1cc(O)c(O)c(O)c1 | 0.04% |  |  |  |  | inactive
